Source: BindingDB's records for doi:10.1021/jm00107a051 (Merck Sharp and Dohme Research Laboratories, 1991)

The compounds below were run against T1, Dimer of Gag-Pol polyprotein [489-587] (Human immunodeficiency virus 1, UniProt P12497) (assay: Protease Inhibition Assay). Conditions: pH 5.5; 30 °C.
T1 construct: 489-587
Procedure: Sensitivity of HIV-1 protease activity to protease inhibitors was determined by a peptide substrate cleavage assay. Protease products were analyzed on a reverse-phase high-pressure liquid chromatograph.
With CC(C)(C)OC(=O)N[C@@H](Cc1ccccc1)[C@@H](O)C[C@@H](Cc1ccccc1)C(=O)N[C@H]1c2ccccc2C[C@H]1C(N)=O [tert-butyl N-[(2S,3S,5R)-5-benzyl-5-{[(1R,2R)-2-carbamoyl-2,3-dihydro-1H-inden-1-yl]carbamoyl}-3-hydroxy-1-phenylpentan-2-yl]carbamate] the IC50 was 1.8 nM. Work on CC(C)(C)OC(=O)N[C@@H](Cc1ccccc1)[C@@H](O)C[C@@H](Cc1ccccc1)C(=O)N[C@@H]1c2ccccc2C[C@@H]1O [tert-butyl N-[(2S,3S,5R)-5-benzyl-3-hydroxy-5-{[(1R,2S)-2-hydroxy-2,3-dihydro-1H-inden-1-yl]carbamoyl}-1-phenylpentan-2-yl]carbamate] yielded an IC50 of 229 nM. For CC(C)(C)OC(=O)N[C@@H](Cc1ccccc1)[C@@H](O)C[C@@H](Cc1ccccc1)C(=O)N[C@H]1c2ccccc2[C@@H](N)[C@H]1O [tert-butyl N-[(2S,3S,5R)-5-{[(1S,2R,3R)-3-amino-2-hydroxy-2,3-dihydro-1H-inden-1-yl]carbamoyl}-5-benzyl-3-hydroxy-1-phenylpentan-2-yl]carbamate], the IC50 was 1.9 nM. For CC(C)(C)OC(=O)N[C@@H](Cc1ccccc1)[C@@H](O)C[C@@H](Cc1ccccc1)C(=O)NC1Cc2ccccc2C1 [tert-butyl N-[(2S,3S,5R)-5-benzyl-5-(2,3-dihydro-1H-inden-2-ylcarbamoyl)-3-hydroxy-1-phenylpentan-2-yl]carbamate], the IC50 was 19 nM.
